{
  "source": "paper PMC8348142",
  "about": "“Antimicrobial Peptide Modifications against Clinically Isolated Antibiotic-Resistant Salmonella” (Molecules, 2021)",
  "key": {"[1]": {"system": "clinical Salmonella isolates", "assay": "Antibiofilm: inhibition of initial cell attachment, crystal violet", "assay_type": "cell-based", "details": "24 h, 30 °C, polystyrene plate, crystal violet OD590", "method": "The effect of peptides on biofilm formation was tested according to the method described by Sandasi et al. with slight modifications.\nBacterial suspensions of 5 × 10^5 CFU/mL in MHB were prepared as described above. […] The plates were incubated to grow biofilms for 24 h at 30 °C. The incubations of bacteria without peptide and MHB without bacteria were employed as positive (100%) control and negative (0%) control for biofilm growth, respectively. The assay was carried out twice.\nThe biofilm biomasses obtained from the antibiofilm assay plates were quantified by the crystal violet (CV) staining method with minor modifications. After incubating the plates to grow the biofilms, the growth medium and free bacterial cells were gently removed from the wells and then rinsed thrice with water. The plates were air-dried and subsequently 60 °C oven-dried for 30 min. Each well was stained with 125 µL of 0.1% CV (Merck, Burlington, MA, USA) solution for 15 min. The solution was removed from the wells and further thrice rinsed with water. The biomass bound CV was dissolved with 125 µL of 95% ethanol (Merck) for 5 min, and was transferred into a flat-bottom PS 96-well plate (Jet Biofil, Guangzhou, China). Absorbance values at 590 nm (OD590) of the dissolved solutions were measured by a microplate reader (Tecan Sunrise, Männedorf, Switzerland). Mean OD590 values were determined and all were subtracted by mean OD590 of MHB (negative control) prior to calculate the inhibition (%) as; ((OD590 (no peptide) − OD590 (peptide))/(OD590 (no peptide)) × 100."}, "sheep red blood cells": {"system": "sheep red blood cells", "assay": "Hemolytic activity assay", "assay_type": "cell-based", "details": "for percent hemolysis: 2% sRBCs in PBS, 37 °C, 1 h, OD540, triplicate mean", "method": "The peptide toxicity to the mammalian system was screened based on the hemolytic test by measuring the hemoglobin released from ruptured red blood cells (RBCs). In this study, sheep RBCs (sRBCs) were employed. They were thrice washed and prepared as a suspension in phosphate-buffered saline (PBS, Oxoid). A suspension of 2% sRBCs was incubated with 2-fold serial dilutions of peptide (final concentrations; 256 to 1 µM in a total volume of 200 µL) at 37 °C for 1 h. The solutions of 0.1% (final concentration) Triton X-100 (Sigma-Aldrich) and PBS containing the peptide solvent were used instead of the peptides as the controls of hemolysis at 100% and 0%, respectively. Thereafter, the post-incubated suspensions were centrifuged (1000× g, 3 min) to pelletize residual sRBCs. The supernatants were then transferred into a flat-bottom PS 96-well plate and were measured the absorbance at 540 nm (OD540) by a microplate reader. The test was conducted in triplicate and the mean OD540 was used to calculate the hemolysis (%) as; ((OD540 (peptide) − OD540 (PBS + peptide solvent))/(OD540 (0.1% Triton X-100) − OD540 (PBS + peptide solvent))) × 100. The hemolytic concentration 50 (HC50), a concentration inducing 50% hemolysis, was determined.\nThe GraphPad Prism version 7.00 (GraphPad Software, La Jolla, CA, USA) was applied for all statistical analyses and data visualizations. Replicate quantitative results were calculated and shown as mean ± SD, unless otherwise specified. The HC50 values were determined using nonlinear regression analysis. The paired t-test and repeated measures one-way ANOVA with Tukey’s multiple comparison test were applied to compare between 2 groups and among 3 or more groups, respectively. The comparisons were considered as a statistically significant difference when a p-value < 0.05."}, "[2]": {"assay": "Overall hydrophobicity from RP-HPLC data (percent acetonitrile at elution)", "assay_type": "physicochemical", "details": "percentage of acetonitrile at which the peptide eluted, more % ACN = more hydrophobic"}, "[3]": {"system": "clinical Salmonella isolates", "assay": "MIC, broth microdilution", "assay_type": "cell-based", "details": "for MIC: MHB, 5 × 10^5 CFU/mL, 37 °C, 18 h, duplicate", "method": "All 12 isolates of Salmonella used in this study were clinical isolates and anonymous left-overs from laboratory diagnoses. They were maintained in a 20% glycerol (Sigma-Aldrich) stock at −80 °C and further cultured on Mueller-Hinton agar (MHA, Oxoid, Hampshire, UK) at 37 °C for 18 h to obtain single colonies for antimicrobial assays. This study was approved by the Ethics Committee of the Faculty of Tropical Medicine (Mahidol University, Bangkok, Thailand; MUTM-EXMPT 2017-007).\nMIC was determined using the broth microdilution method described by Hancock with some modifications. Briefly, bacterial colonies grown from the MHA were prepared in MHB (Oxoid) as a 0.5 McFarland suspension (which is equal to 1 × 10^8 CFU/mL), and was further 200-fold diluted by the MHB (5 × 10^5 CFU/mL). The bacterial suspension (50 µL) was mixed with 2-fold serial dilutions of peptide (5.5 µL) achieving final concentrations of 256 to 1 µM using a round-bottom polypropylene (PP) 96-well plate (Greiner Bio-One). The plate was incubated at 37 °C for 18 h including incubating peptide free-bacteria as positive growth control, and MHB as negative growth control. After the incubation, the lowest concentration with no visible growth was defined as a MIC value. The assay was performed in a duplicate manner."}},
  "note": "Marks after values point to notes of the source that are not given here. Ends that are not written are not given here.",
  "data": [
    {"substance": "FIRRIARLLRRIF-NH2 [Kn2-5R-NH2]", "values": [
      {"measurement": "Inhibition (%) of cell attachment", "setting": "[1]; 0.25MBC, isolate 5", "value": 69, "unit": "%"},
      {"measurement": "Inhibition (%) of cell attachment", "setting": "[1]; 0.25MBC, isolate 7", "value": 73.6, "unit": "%"},
      {"measurement": "Inhibition (%) of cell attachment", "setting": "[1]; 0.25MBC, isolate 11", "value": 64.3, "unit": "%"},
      {"measurement": "Inhibition (%) of cell attachment", "setting": "[1]; 0.25MBC, isolate 18", "value": 25, "unit": "%"},
      {"measurement": "Inhibition (%) of cell attachment", "setting": "[1]; 0.25MBC, isolate 26", "value": 88.2, "unit": "%"},
      {"measurement": "Inhibition (%) of cell attachment", "setting": "[1]; 0.25MBC, isolate 27", "value": 79.1, "unit": "%"},
      {"measurement": "Inhibition (%) of cell attachment", "setting": "[1]; 0.25MBC, isolate 55", "value": 73.3, "unit": "%"},
      {"measurement": "Inhibition (%) of cell attachment", "setting": "[1]; 0.25MBC, isolate 61", "value": 33.3, "unit": "%"},
      {"measurement": "Inhibition (%) of cell attachment", "setting": "[1]; 0.25MBC, isolate 69", "value": 40, "unit": "%"},
      {"measurement": "Inhibition (%) of cell attachment", "setting": "[1]; 0.25MBC, isolate 76", "value": 79.1, "unit": "%"},
      {"measurement": "Inhibition (%) of cell attachment", "setting": "[1]; 0.25MBC, isolate 78", "value": 43.9, "unit": "%"},
      {"measurement": "Inhibition (%) of cell attachment", "setting": "[1]; 0.25MBC, isolate 107", "value": 78.3, "unit": "%"},
      {"measurement": "Inhibition (%) of cell attachment", "setting": "[1]; 0.5MBC, isolate 5", "value": 100, "unit": "%"},
      {"measurement": "Inhibition (%) of cell attachment", "setting": "[1]; 0.5MBC, isolate 7", "value": 93, "unit": "%"},
      {"measurement": "Inhibition (%) of cell attachment", "setting": "[1]; 0.5MBC, isolate 11", "value": 100, "unit": "%"},
      {"measurement": "Inhibition (%) of cell attachment", "setting": "[1]; 0.5MBC, isolate 18", "value": 58.3, "unit": "%"},
      {"measurement": "Inhibition (%) of cell attachment", "setting": "[1]; 0.5MBC, isolate 26", "value": 100, "unit": "%"},
      {"measurement": "Inhibition (%) of cell attachment", "setting": "[1]; 0.5MBC, isolate 27", "value": 100, "unit": "%"},
      {"measurement": "Inhibition (%) of cell attachment", "setting": "[1]; 0.5MBC, isolate 55", "value": 84.1, "unit": "%"},
      {"measurement": "Inhibition (%) of cell attachment", "setting": "[1]; 0.5MBC, isolate 61", "value": 63.2, "unit": "%"},
      {"measurement": "Inhibition (%) of cell attachment", "setting": "[1]; 0.5MBC, isolate 69", "value": 64.8, "unit": "%"},
      {"measurement": "Inhibition (%) of cell attachment", "setting": "[1]; 0.5MBC, isolate 76", "value": 100, "unit": "%"},
      {"measurement": "Inhibition (%) of cell attachment", "setting": "[1]; 0.5MBC, isolate 78", "value": 98.9, "unit": "%"},
      {"measurement": "Inhibition (%) of cell attachment", "setting": "[1]; 0.5MBC, isolate 107", "value": 100, "unit": "%"},
      {"measurement": "HC50 (hemolytic concentration 50)", "setting": "sheep red blood cells; concentration inducing 50% hemolysis of sRBCs, nonlinear regression, unit (µM)", "value": 67.09, "unit": "µM"},
      {"measurement": "percent hemolysis", "setting": "sheep red blood cells; peptide 1 µM", "value": 0.1, "unit": "%"},
      {"measurement": "percent hemolysis", "setting": "sheep red blood cells; peptide 2 µM", "value": 0.3, "unit": "%"},
      {"measurement": "percent hemolysis", "setting": "sheep red blood cells; peptide 4 µM", "value": "2 * %"},
      {"measurement": "percent hemolysis", "setting": "sheep red blood cells; peptide 8 µM", "value": 2.5, "unit": "%"},
      {"measurement": "percent hemolysis", "setting": "sheep red blood cells; peptide 16 µM", "value": 5.4, "unit": "%"},
      {"measurement": "percent hemolysis", "setting": "sheep red blood cells; peptide 32 µM", "value": 16.9, "unit": "%"},
      {"measurement": "percent hemolysis", "setting": "sheep red blood cells; peptide 64 µM", "value": 40.3, "unit": "%"},
      {"measurement": "percent hemolysis", "setting": "sheep red blood cells; peptide 128 µM", "value": 99.3, "unit": "%"},
      {"measurement": "percent hemolysis", "setting": "sheep red blood cells; peptide 256 µM", "value": 99.5, "unit": "%"},
      {"measurement": "concentration required for the initiation of hemolysis", "setting": "sheep red blood cells; sRBCs, 60 min, 256–1 µM tested", "value": 1000, "unit": "nM"},
      {"measurement": "ACN (%) at elution, overall hydrophobicity", "setting": "[2]", "value": 42.1, "unit": "%"},
      {"measurement": "GM of MIC (GMMIC)", "setting": "[3]; geometric mean over 12 clinical Salmonella isolates", "value": 4, "unit": "µM"},
      {"measurement": "MIC", "setting": "[3]; isolate 5 (Enteritidis, blood; resistant AMP, SXT, KZ)", "value": 4, "unit": "µM"},
      {"measurement": "MIC", "setting": "[3]; isolate 7 (Typhimurium, blood; resistant AMP, CN, TE, NA, SXT)", "value": 4, "unit": "µM"},
      {"measurement": "MIC", "setting": "[3]; isolate 11 (I 1,4:i:-, blood; resistant AMP, TE, NA, SXT, C)", "value": 4, "unit": "µM"},
      {"measurement": "MIC", "setting": "[3]; isolate 18 (Stanley, urine; resistant TE, SXT, C)", "value": 4, "unit": "µM"},
      {"measurement": "MIC", "setting": "[3]; isolate 26 (Typhimurium, urine; resistant TZP, TE, NA)", "value": 4, "unit": "µM"},
      {"measurement": "MIC", "setting": "[3]; isolate 27 (Typhimurium, stool; resistant AMP, TE, NA, SXT, CIP)", "value": 4, "unit": "µM"},
      {"measurement": "MIC", "setting": "[3]; isolate 55 (Typhimurium, blood; resistant AMP, SXT, C, TE)", "value": 4, "unit": "µM"},
      {"measurement": "MIC", "setting": "[3]; isolate 61 (Enteritidis, blood; resistant AMP, TE, NA, SXT)", "value": 4, "unit": "µM"},
      {"measurement": "MIC", "setting": "[3]; isolate 69 (Typhimurium, stool; resistant AMP)", "value": 4, "unit": "µM"},
      {"measurement": "MIC", "setting": "[3]; isolate 76 (Enteritidis, CSF; resistant NA)", "value": 4, "unit": "µM"},
      {"measurement": "MIC", "setting": "[3]; isolate 78 (Enteritidis, blood; resistant TE, CIP, NA, SXT)", "value": 4, "unit": "µM"},
      {"measurement": "MIC", "setting": "[3]; isolate 107 (Typhimurium, stool; susceptible)", "value": 4, "unit": "µM"}
    ]}
  ]
}
